In PMC11272598, “RG7774 (Vicasinabin), an orally bioavailable cannabinoid receptor 2 (CB2R) agonist, decreases retinal vascular permeability, leukocyte adhesion, and ocular inflammation in animal models” (Frontiers in Pharmacology, 2024):

Key:
Experiment in all cases: CEREP radioligand binding
AT1 (h) = AT1 (h) (Homo sapiens, UniProt P30556); settings: radioligand [^125I]-[Sar^1,Ile^8]-AT-II
From the text: (§1) Supplement Table1.docx, table 3: Supplementary Table S3. RG7774 binding to non-CB1R/CB2R receptors, ion channels, transporters, and enzymes (CEREP, Celle l’Evescault, France; http://www.cerep.fr). | column: % inhibition of control SB (n = 2)

M1 (h) = M1 (h) (Homo sapiens, UniProt P11229); settings: radioligand [^3H]-pirenzepine
Sequence of M1 (h) (P11229 whole entry): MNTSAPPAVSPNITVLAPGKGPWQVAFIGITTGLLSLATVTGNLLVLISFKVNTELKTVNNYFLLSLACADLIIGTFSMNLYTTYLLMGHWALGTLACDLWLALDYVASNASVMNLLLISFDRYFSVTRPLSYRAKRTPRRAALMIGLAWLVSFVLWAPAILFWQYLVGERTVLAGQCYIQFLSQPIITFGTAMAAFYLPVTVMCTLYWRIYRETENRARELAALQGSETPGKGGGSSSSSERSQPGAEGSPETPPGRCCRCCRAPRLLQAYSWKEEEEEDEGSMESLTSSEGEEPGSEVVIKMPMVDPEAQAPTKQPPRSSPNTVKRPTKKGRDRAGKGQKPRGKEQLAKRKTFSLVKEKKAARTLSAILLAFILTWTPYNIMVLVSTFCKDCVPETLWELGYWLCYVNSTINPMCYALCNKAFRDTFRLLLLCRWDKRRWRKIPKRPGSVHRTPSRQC
From the text: as §1

H2 (h) = H2 (h) (Homo sapiens, UniProt P25021); settings: radioligand [^125I]-APT
From the text: as §1

Alpha 1 (non-selective) = settings: radioligand [^3H]-prazosin
From the text: as §1

GABA (non-selective) = settings: radioligand [^3H]-GABA
From the text: as §1

Beta 2 (h) = Beta 2 (h) (Homo sapiens, UniProt P07550); settings: radioligand [^3H](-)CGP 12177
Sequence of Beta 2 (h) (P07550 whole entry): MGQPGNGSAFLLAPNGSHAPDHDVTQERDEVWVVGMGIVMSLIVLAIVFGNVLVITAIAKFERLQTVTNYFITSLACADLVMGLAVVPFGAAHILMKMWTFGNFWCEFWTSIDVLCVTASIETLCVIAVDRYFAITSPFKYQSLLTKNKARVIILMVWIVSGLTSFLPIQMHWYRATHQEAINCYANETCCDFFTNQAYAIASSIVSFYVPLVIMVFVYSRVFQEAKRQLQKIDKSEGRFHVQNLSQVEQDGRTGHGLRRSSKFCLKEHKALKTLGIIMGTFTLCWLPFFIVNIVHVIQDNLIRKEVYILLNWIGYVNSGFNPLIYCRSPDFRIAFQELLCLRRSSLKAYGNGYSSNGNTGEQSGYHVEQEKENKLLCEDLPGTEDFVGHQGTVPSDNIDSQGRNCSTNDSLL
From the text: as §1

ETB (h) = ETB (h) (Homo sapiens, UniProt P24530); settings: radioligand [^125I]-endothelin-1
From the text: as §1

GR (h) = GR (h) (Homo sapiens, UniProt P04150); settings: radioligand [^3H]-dexamethasone
Sequence of GR (h) (P04150 whole entry): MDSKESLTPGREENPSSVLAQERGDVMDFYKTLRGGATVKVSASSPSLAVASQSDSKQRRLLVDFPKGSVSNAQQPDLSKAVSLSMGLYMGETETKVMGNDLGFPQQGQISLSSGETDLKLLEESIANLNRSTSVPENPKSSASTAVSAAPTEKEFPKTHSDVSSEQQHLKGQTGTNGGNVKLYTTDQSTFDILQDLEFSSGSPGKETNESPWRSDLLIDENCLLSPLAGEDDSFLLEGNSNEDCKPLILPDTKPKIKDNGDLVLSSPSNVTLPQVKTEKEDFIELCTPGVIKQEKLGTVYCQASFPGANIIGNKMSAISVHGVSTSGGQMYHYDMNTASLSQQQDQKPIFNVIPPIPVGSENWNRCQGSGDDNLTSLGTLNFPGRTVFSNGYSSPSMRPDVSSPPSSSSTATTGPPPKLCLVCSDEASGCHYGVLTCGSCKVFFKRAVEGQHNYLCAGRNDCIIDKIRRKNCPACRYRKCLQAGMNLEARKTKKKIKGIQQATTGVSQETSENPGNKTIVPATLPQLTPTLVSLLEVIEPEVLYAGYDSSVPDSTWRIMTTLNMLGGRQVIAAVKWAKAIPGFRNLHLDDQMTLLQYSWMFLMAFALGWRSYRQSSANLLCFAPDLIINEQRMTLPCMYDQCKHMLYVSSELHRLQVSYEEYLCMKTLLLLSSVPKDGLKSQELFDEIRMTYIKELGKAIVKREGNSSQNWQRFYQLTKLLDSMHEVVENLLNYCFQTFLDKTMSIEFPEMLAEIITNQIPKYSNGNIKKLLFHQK
From the text: as §1

CXCR2 = CXCR2 (Homo sapiens, UniProt P25025); settings: radioligand [^125I]-IL-8
From the text: as §1

IP (PGI2) (h) = IP (PGI2) (h) (Homo sapiens, UniProt P43119); settings: radioligand [^3H]-iloprost
From the text: as §1

BZD (central) = settings: radioligand [^3H]-flunitrazepam
From the text: as §1

MT1 (ML1A) (h) = MT1 (ML1A) (h) (Homo sapiens, UniProt P48039); settings: radioligand [^125I]-2-iodomelatonin
From the text: as §1

P2Y = settings: radioligand [^35S]-dATPαS
From the text: as §1

D1 (h) = D1 (h) (Homo sapiens, UniProt P21728); settings: radioligand [^3H]-SCH 23390
Sequence of D1 (h) (P21728 whole entry): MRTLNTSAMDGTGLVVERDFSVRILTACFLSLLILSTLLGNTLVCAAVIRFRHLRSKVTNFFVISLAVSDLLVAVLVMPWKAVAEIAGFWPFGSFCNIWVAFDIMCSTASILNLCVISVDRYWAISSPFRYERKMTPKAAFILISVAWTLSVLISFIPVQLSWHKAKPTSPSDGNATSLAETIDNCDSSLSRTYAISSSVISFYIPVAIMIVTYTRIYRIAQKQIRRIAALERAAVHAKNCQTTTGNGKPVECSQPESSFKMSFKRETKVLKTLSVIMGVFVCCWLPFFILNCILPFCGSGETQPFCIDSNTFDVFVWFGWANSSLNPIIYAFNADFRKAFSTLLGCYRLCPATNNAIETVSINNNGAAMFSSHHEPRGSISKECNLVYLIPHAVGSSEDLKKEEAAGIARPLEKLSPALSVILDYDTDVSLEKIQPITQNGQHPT
From the text: as §1

PCP = settings: radioligand [^3H]-TCP
From the text: as §1

ETA (h) = ETA (h) (Homo sapiens, UniProt P25101); settings: radioligand [^125I]-endothelin-1
Sequence of ETA (h) (P25101 21-427): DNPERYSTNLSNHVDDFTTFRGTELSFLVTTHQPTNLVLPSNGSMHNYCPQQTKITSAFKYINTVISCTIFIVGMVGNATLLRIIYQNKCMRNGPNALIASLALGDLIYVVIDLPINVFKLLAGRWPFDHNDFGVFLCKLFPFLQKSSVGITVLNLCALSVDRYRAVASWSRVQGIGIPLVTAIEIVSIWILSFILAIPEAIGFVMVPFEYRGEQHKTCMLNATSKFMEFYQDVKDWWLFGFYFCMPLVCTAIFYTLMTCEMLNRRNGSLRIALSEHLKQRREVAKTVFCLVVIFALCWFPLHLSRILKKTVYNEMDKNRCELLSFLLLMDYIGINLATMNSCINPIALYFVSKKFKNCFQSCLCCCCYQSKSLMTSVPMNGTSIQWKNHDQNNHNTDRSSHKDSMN
From the text: as §1

Beta 1 (h) = Beta 1 (h) (Homo sapiens, UniProt P08588); settings: radioligand [^3H](-)CGP 12177
Sequence of Beta 1 (h) (P08588 whole entry): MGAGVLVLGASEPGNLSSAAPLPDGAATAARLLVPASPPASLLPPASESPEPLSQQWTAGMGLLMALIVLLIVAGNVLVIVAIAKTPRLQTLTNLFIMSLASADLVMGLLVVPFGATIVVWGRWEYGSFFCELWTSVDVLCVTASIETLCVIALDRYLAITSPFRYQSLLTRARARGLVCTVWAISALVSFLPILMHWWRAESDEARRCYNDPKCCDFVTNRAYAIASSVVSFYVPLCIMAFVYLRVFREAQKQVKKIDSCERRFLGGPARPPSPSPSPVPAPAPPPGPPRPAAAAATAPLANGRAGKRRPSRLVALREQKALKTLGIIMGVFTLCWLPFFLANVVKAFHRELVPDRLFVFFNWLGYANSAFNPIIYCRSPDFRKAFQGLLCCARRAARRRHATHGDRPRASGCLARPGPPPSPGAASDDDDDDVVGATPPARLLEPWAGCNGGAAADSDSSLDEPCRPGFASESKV
From the text: as §1

B2 (h) = B2 (h) (Homo sapiens, UniProt P30411); settings: radioligand [^3H]-bradykinin
From the text: as §1

VPAC1 (VIP1) (h) = VPAC1 (VIP1) (h) (Homo sapiens, UniProt P32241); settings: radioligand [^125I]-VIP
From the text: as §1

sst (non-selective) = settings: radioligand [^125I]-Tyr^11-somatostatin-14
From the text: as §1

5-HT2B (h) = 5-HT2B (h) (Homo sapiens, UniProt P41595); settings: radioligand [^125I](±)DOI
Sequence of 5-HT2B (h) (P41595 whole entry): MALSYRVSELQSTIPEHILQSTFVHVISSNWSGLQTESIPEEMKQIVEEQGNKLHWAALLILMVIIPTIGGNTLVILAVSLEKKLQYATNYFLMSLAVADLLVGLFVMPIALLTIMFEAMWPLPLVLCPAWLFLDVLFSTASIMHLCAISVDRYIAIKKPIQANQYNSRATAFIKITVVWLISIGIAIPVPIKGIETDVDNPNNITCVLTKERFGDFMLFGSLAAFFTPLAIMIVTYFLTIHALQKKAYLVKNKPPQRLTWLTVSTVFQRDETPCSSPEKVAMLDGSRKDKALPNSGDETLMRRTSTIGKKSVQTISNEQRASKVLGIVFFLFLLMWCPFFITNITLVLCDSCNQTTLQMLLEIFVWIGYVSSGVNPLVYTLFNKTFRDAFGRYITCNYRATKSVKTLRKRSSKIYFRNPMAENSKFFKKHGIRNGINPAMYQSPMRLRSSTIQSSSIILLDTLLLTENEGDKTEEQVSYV
From the text: as §1

5-HT2A (h) = 5-HT2A (h) (Homo sapiens, UniProt P28223); settings: radioligand [^3H]-ketanserin
From the text: as §1

5-HT6 (h) = 5-HT6 (h) (Homo sapiens, UniProt P50406); settings: radioligand [^3H]-LSD
From the text: as §1

CGRP (h) = CGRP (h) (Homo sapiens, UniProt O60894+Q16602); settings: radioligand [^125I]-hCGRPα
Sequence of CGRP (h) (Q16602 23-461): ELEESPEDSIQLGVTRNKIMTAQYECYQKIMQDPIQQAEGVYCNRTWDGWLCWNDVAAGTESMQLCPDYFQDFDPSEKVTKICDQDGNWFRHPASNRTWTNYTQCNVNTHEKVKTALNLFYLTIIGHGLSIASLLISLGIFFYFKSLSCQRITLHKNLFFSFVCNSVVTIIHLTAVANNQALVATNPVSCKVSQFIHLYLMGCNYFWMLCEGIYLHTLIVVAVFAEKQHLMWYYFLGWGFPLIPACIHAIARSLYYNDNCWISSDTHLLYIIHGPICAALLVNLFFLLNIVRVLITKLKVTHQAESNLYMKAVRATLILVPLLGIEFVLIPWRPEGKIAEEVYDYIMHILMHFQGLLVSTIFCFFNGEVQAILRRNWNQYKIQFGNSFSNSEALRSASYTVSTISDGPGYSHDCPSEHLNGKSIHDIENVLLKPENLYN
Sequence of CGRP (h) (O60894 27-148): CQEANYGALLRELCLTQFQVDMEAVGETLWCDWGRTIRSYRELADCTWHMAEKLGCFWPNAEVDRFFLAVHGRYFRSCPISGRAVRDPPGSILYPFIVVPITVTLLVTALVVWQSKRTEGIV
From the text: as §1

NTS1 (NT1) (h) = NTS1 (NT1) (h) (Homo sapiens, UniProt P30989); settings: radioligand [^125I]-Tyr3-neurotensin
From the text: as §1

TNF-α = settings: radioligand [^125I]-TNF-α
From the text: as §1

D2S (h) = D2S (h) (Homo sapiens, UniProt P14416); settings: radioligand [^3H]-methyl-spiperone
Sequence of D2S (h) (P14416 1-414 isoform P14416-2): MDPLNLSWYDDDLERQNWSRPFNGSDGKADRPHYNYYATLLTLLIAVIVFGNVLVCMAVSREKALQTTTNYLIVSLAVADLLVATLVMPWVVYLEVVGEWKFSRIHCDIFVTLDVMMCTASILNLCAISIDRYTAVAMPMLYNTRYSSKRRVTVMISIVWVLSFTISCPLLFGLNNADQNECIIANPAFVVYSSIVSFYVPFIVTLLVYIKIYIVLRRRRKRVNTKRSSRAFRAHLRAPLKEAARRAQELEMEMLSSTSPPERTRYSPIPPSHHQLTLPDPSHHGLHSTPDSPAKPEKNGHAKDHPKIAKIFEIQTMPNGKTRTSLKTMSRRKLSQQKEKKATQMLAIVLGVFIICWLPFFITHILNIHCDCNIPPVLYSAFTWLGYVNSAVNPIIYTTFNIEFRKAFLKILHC
From the text: as §1

5-HT7 (h) = 5-HT7 (h) (Homo sapiens, UniProt P34969); settings: radioligand [^3H]-LSD
Sequence of 5-HT7 (h) (P34969 whole entry): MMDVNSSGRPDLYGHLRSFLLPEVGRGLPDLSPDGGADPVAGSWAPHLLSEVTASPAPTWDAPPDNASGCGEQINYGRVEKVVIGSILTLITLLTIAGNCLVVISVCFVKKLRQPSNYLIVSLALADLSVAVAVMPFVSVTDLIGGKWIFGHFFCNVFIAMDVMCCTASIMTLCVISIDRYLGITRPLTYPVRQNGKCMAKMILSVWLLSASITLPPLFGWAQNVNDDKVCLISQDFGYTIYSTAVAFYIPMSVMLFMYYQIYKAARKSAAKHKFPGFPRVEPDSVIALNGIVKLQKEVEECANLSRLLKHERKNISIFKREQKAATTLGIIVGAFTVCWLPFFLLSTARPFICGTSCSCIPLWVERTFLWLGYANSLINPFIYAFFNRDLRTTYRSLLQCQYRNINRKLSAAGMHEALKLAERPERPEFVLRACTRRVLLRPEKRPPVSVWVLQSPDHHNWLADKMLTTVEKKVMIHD
From the text: as §1

V1a (h) = V1a (h) (Homo sapiens, UniProt P37288); settings: radioligand [^3H]-AVP
From the text: as §1

Cn1nnnc1Cn1nnc2c(N3CC[C@H](O)C3)nc(C(C)(C)C)nc21 [RG7774, (S)-1-(5-tert-butyl-3-[(1-methyl-1H-tetrazol-5-yl)methyl]-3H-[1,2,3]triazolo[4,5-d]pyrimidin-7-yl)pyrrolidin-3-ol]
% inhibition of control SB (n = 2) (AT1 (h)): –5.6% | % inhibition of control SB (n = 2) (M1 (h)): –15.6% | % inhibition of control SB (n = 2) (H2 (h)): –2.3% | % inhibition of control SB (n = 2) (Alpha 1 (non-selective)): 6.9% | % inhibition of control SB (n = 2) (GABA (non-selective)): –16.1% | % inhibition of control SB (n = 2) (Beta 2 (h)): –1.3% | % inhibition of control SB (n = 2) (ETB (h)): –8.1% | % inhibition of control SB (n = 2) (GR (h)): 3.0% | % inhibition of control SB (n = 2) (CXCR2): –7.7% | % inhibition of control SB (n = 2) (IP (PGI2) (h)): –3.8% | % inhibition of control SB (n = 2) (BZD (central)): –0.7% | % inhibition of control SB (n = 2) (MT1 (ML1A) (h)): 7.9% | % inhibition of control SB (n = 2) (P2Y): 2.3% | % inhibition of control SB (n = 2) (D1 (h)): –1.0% | % inhibition of control SB (n = 2) (PCP): –4.4% | % inhibition of control SB (n = 2) (ETA (h)): –10.4% | % inhibition of control SB (n = 2) (Beta 1 (h)): –3.1% | % inhibition of control SB (n = 2) (B2 (h)): –1.6% | % inhibition of control SB (n = 2) (VPAC1 (VIP1) (h)): 7.8% | % inhibition of control SB (n = 2) (sst (non-selective)): –22.2% | % inhibition of control SB (n = 2) (5-HT2B (h)): –24.1% | % inhibition of control SB (n = 2) (5-HT2A (h)): –4.8% | % inhibition of control SB (n = 2) (5-HT6 (h)): 3.5% | % inhibition of control SB (n = 2) (CGRP (h)): 1.7% | % inhibition of control SB (n = 2) (NTS1 (NT1) (h)): –4.7% | % inhibition of control SB (n = 2) (TNF-α): 4.9% | % inhibition of control SB (n = 2) (D2S (h)): 12.0% | % inhibition of control SB (n = 2) (5-HT7 (h)): 3.9% | % inhibition of control SB (n = 2) (V1a (h)): 7.5%
